{"source": "patent US20240398737A1", "about": "“FUNCTIONALIZED LONG-CHAIN HYDROCARBON MONO- AND DI-CARBOXYLIC ACIDS AND DERIVATIVES THEREOF, AND THEIR USE FOR THE PREVENTION OR TREATMENT OF DISEASE” (Espervita Therapeutics, Inc., priority 2021, published 2024)", "key": {"[1]": {"molecular_target": "Human ACC1 (Homo sapiens (Human), UniProt Q13085)", "assay": "ACC1 enzymatic assay (ADP-Glo)", "assay_type": "biochemical", "set-up": "key to Compound IC50 (M) ACC1: *: No detectable inhibition or compound activity", "conditions": "recombinant human ACC1 5 nM; 10 concentrations from 300 μM; Runs 1-3", "experimental": "Human ACC1 (Cat #50202 Lot #120830) and ACC2 (Cat #50201 Lot #160217) were obtained from BPS Biosciences, San Diego, CA 92121. Human ACC1 had C-terminal flag and His-tags with a MW of 270 KDa after purification from Baculovirus infected Sf9 cell expression system and came as a solution in 50 mM Tris-HCl, pH 8.0, 500 mM NaCl, 10% glycerol, 1 mM DTT, 100 μg/ml FLAG peptide with 70% purity. The stock concentration was 0.25 mg/ml corresponding to 0.926 μM. Human ACC2 was also purified from Baculovirus infected Sf9 expression system. […] The stock concentration was 0.1 mg/ml corresponding to 0.36 μM. The assay buffer for measuring the activity of ACC contained: 30 mM HEPES (pH 7.4), 2 mM MgCl2, 0.01% Brij35, 2 mM DTT, 1% DMSO (solvent for compound). For ACC1 and ACC2 assays, the following concentrations of substrate and cofactors were used: 12 mM NaHCO3, 10 μM acetyl CoA, 10 μM ATP, and 2 mM K-citrate. The recombinant human enzyme was used at 5 nM for ACC1 and 1 nM for ACC2. In brief, enzyme alone in the above buffer without substrate was used for background. All test materials were dissolved in 100% DMSO using acoustic technology (Echo550). The prepared solution was preincubated for 15 min followed by the addition of 5 μL/well of ADP standard. ATP was then added to start the reaction. The assay contents were spun and briefly shaken followed by incubation at room temperature for 1 h. At the end of completion of assay, 5 μL of ADP-Glo was added to each well to stop the reaction. The contents were mixed, spun and incubated at room temperature for 40 min followed by the addition of 10 μL/well of ADP detection reagent. The contents were spun, mixed and covered with plastic to measure luminescence. […] The light generated, measured in a luminometer, correlates to the amount of ADP generated in the ACC assay, which is indicative of ACC activity.\nThe enzyme concentrations for ACC1 and ACC2 were 5 nM and 1 nM, respectively.\nData represent nM or μM ADP produced, % Activity (relative to no inhibitor controls), and curve fits were performed by GraphPad Prism software. […]"}, "[2]": {"system": "bone marrow derived macrophages (BMDMs)", "assay": "LPS-induced glycolysis in bone marrow derived macrophages (Seahorse)", "assay_type": "cell-based, mouse", "conditions": "LPS + Compound I-1 50 μM, 4 hours", "experimental": "(§1) Example 10: Treatment of bone marrow derived macrophages Mϕ (BMDMs) with Compound I-1 suppresses lipopolysaccharide (LPS)-induced glycolysis and inflammation. Macrophage were isolated as follows: femurs and tibia were collected from mice, cleaned of any soft tissues and the ends were cut off from each bone. The tibia and femur were then transferred into 1.5 mL Eppendorf tubes and the marrow was extracted via centrifugation (1900 g×5 min), resuspended in DMEM and strained through a 40 μm strainer into a 50 ml falcon tube. The strainer was rinsed with an additional 40 mL of DMEM, the cell suspension was transferred to a T175 flask, an additional 60 mL of DMEM was added and the cells were cultured at 37° C. for 4 hours. Differentiation was initiated by adding 20 mL of L929 fibroblast conditioned media and 12 mL was plated on 100 mm dishes. The cells were then left for 7 days to differentiate into macrophages. […] Changes in gene expression were calculated using 2-delta cT method. Macrophage glycolytic rates were assessed using a Seahorse Bioanalyzer (XFe96, Agilent Scientific Instruments). […] The following day cells were serum-starved for 2 hours then treated with LPS (100 ng/mL) and Compound I-1 (50 μM) and glycolytic rate was analyzed (Agilent Seahorse XFp Cell Energy Phenotype Test Kit, Cat #103275-100)."}, "[3]": {"system": "bone marrow derived macrophages (BMDMs)", "assay": "LPS-induced Il-6 and Il-1b mRNA in BMDMs (RT-qPCR)", "assay_type": "cell-based, mouse", "conditions": "LPS 10 ng/mL + Compound I-1 50 μM, 4 hours", "experimental": "as §1"}}}
{"smiles": "CC(C)(CCCCc1ccc(CCCCC(C)(C)C(=O)O)cc1)C(=O)O", "note": "[Compound I-1, 6-[4-(5-carboxy-5-methylhexyl)-phenyl]-2,2-dimethylhexanoic acid]", "values": [{"measurement": "Compound IC50 (M) ACC1", "setting": "[1]", "result": "*"}, {"measurement": "LPS-induced glycolysis (glycolytic rate, Seahorse)", "setting": "[2]", "result": "suppression"}, {"measurement": "Il-1b mRNA (marker of inflammation)", "setting": "[3]", "result": "suppression"}, {"measurement": "Il-6 mRNA (marker of inflammation)", "setting": "[3]", "result": "suppression"}]}
